The results in this text go back to the NIST ThermoML archive (doi:10.1016/j.jct.2013.09.026).

± gives the expanded uncertainty stated by the source.

For the series the following is noted: 298.15 K; 101.33 kPa; Liquid; Vibrating tube method.
In the case of `CCC(C)=O` [butanone], the mass density came to 799.969 ± 0.17 kg/m3.

Regarding `CCCO` [propan-1-ol], the mass density is listed as 799.656 ± 0.17 kg/m3. In the case of `CCN(CC)CC` [triethylamine], the mass density amounted to 722.814 ± 0.19 kg/m3.
